Reference: PMC9033141, “Beta and Gamma Amino Acid-Substituted Benzenesulfonamides as Inhibitors of Human Carbonic Anhydrases” (Pharmaceuticals, 2022)
Like-named read-outs stand apart in the source and are kept apart here.

How the values were obtained:
CAI = target: T1, CAI (Homo sapiens, UniProt P00915); test: biochemical; format: binding; settings: FTSA, pH 7.0, 37 °C; read-out: Observed Dissociation Constant (Kd_obs), CAI
T1 construct: made in house; host or cells: E. coli

CAII = target: T2, CAII (Homo sapiens, UniProt P00918); test: biochemical; format: binding; settings: FTSA, pH 7.0, 37 °C; read-out: Observed Dissociation Constant (Kd_obs), CAII
T2 construct: made in house; host or cells: E. coli
Procedure: (§1) Human CA isozymes were expressed in E. coli (CAI, II, III, IV, VA, VB, VII, XII, XIII, XIV) or mammalian cells (CAVI and CAIX), chromatographically purified following the published protocols [47], and stored at −80 °C. The protein concentration was determined by UV absorption at 280 nm using Beer–Lambert law.
(§2) The QIAGEN Rotor-Gene Q was used to carry out the experiments, with a blue channel used for excitation (365 nm) and detection (460 nm). FTSA in this case relies on an extrinsic probe, 8-anilino-1-naphthalenesulfonate (ANS), to detect the fluorescence increase during protein denaturation, from which protein melting temperature (Tm) can be determined. […] The observed affinity of ligands for CAs was determined by plotting the Tm as a function of ligand concentration and then fitting a curve as described previously [48]. […] Samples were heated from 25 °C to 99 °C at the speed of 1 °C/min.
(§3) The intrinsic thermodynamic parameters were calculated as described in [40]. The intrinsic reaction of inhibitor binding to CA is shown in Equation (1).
(§4) When calculating Kd_int values, these protein and ligand fractions from Equation (1) have to be accounted for (Equations (2) and (3)). The intrinsic dissociation constant is calculated by multiplying Kd_obs value by the corresponding fractions of protein and ligand (Equation (4)). (2) fRSO2NH^−=10^pH−pKa_RSO2NH2/1+10^pH−pKa_RSO2NH2 (3) fCAZnH2O=1−10^pH−pKa_CAZnH2O/1+10^pH−pKa_CAZnH2O (4) Kd_int=Kd_obs×fRSO2NH^−×fCAZnH2O (5) ΔGint0=RTlnKd_int
(§5) The intrinsic standard Gibbs energy changes upon binding were calculated using Equation (5). Here, R—universal ideal gas constant (8.3144 J/mol·K), T—absolute temperature (310.15 K).

CAIII = target: T3, CAIII (Homo sapiens, UniProt P07451); test: Fluorescent thermal shift assay (FTSA), CAIII; format: binding; settings: FTSA, pH 7.0, 37 °C; read-out: Observed Dissociation Constant (Kd_obs), CAIII
T3 construct: made in house; host or cells: E. coli
Procedure: as §1, §2
(§6) The intrinsic thermodynamic parameters were calculated as described in [40]. The intrinsic reaction of inhibitor binding to CA is shown in Equation (1). […] It is known that CA proteins bind sulfonamides only when water molecules are coordinated to the Zn(II) ion, and sulfonamides only bind to CA proteins when their amino group is deprotonated (confirmed by neutron crystallography [53, 54, 55]):(1) CA Zn^II−H2O+RSO2NH^−⇄ CA Zn^II−NH SO2R+H2O
as §4, §5

CAIV = target: T4, CAIV (Homo sapiens, UniProt P22748); test: Fluorescent thermal shift assay (FTSA), CAIV; format: binding; settings: FTSA, pH 7.0, 37 °C; read-out: Observed Dissociation Constant (Kd_obs), CAIV;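 note: recombinant human enzyme, thermal denaturation followed by ANS fluorescence, melting temperature versus ligand concentration fitted for Kd_obs, intrinsic value corrected for deprotonated sulfonamide and Zn-bound water fractions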
T4 construct: made in house; host or cells: E. coli
Procedure: as §1, §2, §6, §4, §5

CAVA = target: T5, CAVA (Homo sapiens, UniProt P35218); test: Fluorescent thermal shift assay (FTSA), CAVA; format: binding; settings: FTSA, pH 7.0, 37 °C; read-out: Observed Dissociation Constant (Kd_obs), CAVA
T5 construct: made in house; host or cells: E. coli
Procedure: as §1, §2, §6, §4, §5

CAVB = target: T6, CAVB (Homo sapiens, UniProt Q9Y2D0); test: Fluorescent thermal shift assay (FTSA), CAVB; format: binding; settings: FTSA, pH 7.0, 37 °C; read-out: Observed Dissociation Constant (Kd_obs), CAVB
T6 construct: made in house; host or cells: E. coli
Procedure: as §1, §2, §6, §4, §5

CAVI = target: T7, CAVI (Homo sapiens, UniProt P23280); test: Fluorescent thermal shift assay (FTSA), CAVI; format: binding; settings: FTSA, pH 7.0, 37 °C; read-out: Observed Dissociation Constant (Kd_obs), CAVI;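 note: human CAVI expressed in mammalian cells, ANS fluorescence tracked during thermal unfolding, melting temperature fitted against ligand concentration, intrinsic values corrected for deprotonated sulfonamide and Zn-bound water fractions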
T7 construct: made in house
Procedure: as §1, §2, §6, §4, §5

CAVII = target: T8, CAVII (Homo sapiens, UniProt P43166); test: Fluorescent thermal shift assay (FTSA), CAVII; format: binding; settings: FTSA, pH 7.0, 37 °C
T8 construct: made in house; host or cells: E. coli
Procedure: as §1, §2, §6, §4, §5

CAIX = target: T9, CAIX (Homo sapiens, UniProt Q16790); test: biochemical; format: binding; settings: FTSA, pH 7.0, 37 °C; read-out: Observed Dissociation Constant (Kd_obs), CAIX
T9 construct: made in house
Procedure: as §1, §2, §3, §4, §5

CAXII = target: T10, CAXII (Homo sapiens, UniProt O43570); test: biochemical; format: binding; settings: FTSA, pH 7.0, 37 °C; read-out: Observed Dissociation Constant (Kd_obs), CAXII
T10 construct: made in house; host or cells: E. coli

CAXIV = target: T11, CAXIV (Homo sapiens, UniProt Q9ULX7); test: Fluorescent thermal shift assay (FTSA), CAXIV; format: binding; settings: FTSA, pH 7.0, 37 °C; read-out: Observed Dissociation Constant (Kd_obs), CAXIV;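 note: recombinant human CA XIV from E. coli, ANS-based thermal shift: Kd_obs fitted from melting temperature versus ligand concentration, ΔGint from Kd_obs corrected for deprotonated sulfonamide and Zn-water fractions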
T11 construct: made in house; host or cells: E. coli
Procedure: as §1, §2, §6, §4, §5

CAXIII = CAXIII (Homo sapiens, UniProt Q8N1Q1); test: biochemical; settings: Observed Dissociation Constant (Kd_obs), FTSA, pH 7.0, 37 °C;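 note: recombinant human CAXIII melting temperature tracked by ANS fluorescence in thermal shift assay, Tm fitted against ligand concentration, intrinsic value corrects Kd for deprotonated sulfonamide and Zn-bound water fractions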
[1] = read-out: Observed Dissociation Constant (Kd_obs), CAVII
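Throughout, for Observed Dissociation Constant (Kd obs), CAXII: recombinant CAXII made in E. coli, ANS-fluorescence thermal shift with affinity fitted from Tm versus ligand concentration, intrinsic energy from Kd_obs corrected for deprotonated sulfonamide and Zn-water fractions.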

T8 sequence (P43166 whole entry): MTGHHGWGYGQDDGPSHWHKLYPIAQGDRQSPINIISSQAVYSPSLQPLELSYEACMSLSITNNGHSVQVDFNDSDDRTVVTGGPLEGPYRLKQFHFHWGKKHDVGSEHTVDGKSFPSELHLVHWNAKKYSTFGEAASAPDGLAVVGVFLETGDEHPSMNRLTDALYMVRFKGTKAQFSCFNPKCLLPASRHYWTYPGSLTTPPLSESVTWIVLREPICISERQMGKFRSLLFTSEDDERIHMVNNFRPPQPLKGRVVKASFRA
T10 sequence (O43570 25-354): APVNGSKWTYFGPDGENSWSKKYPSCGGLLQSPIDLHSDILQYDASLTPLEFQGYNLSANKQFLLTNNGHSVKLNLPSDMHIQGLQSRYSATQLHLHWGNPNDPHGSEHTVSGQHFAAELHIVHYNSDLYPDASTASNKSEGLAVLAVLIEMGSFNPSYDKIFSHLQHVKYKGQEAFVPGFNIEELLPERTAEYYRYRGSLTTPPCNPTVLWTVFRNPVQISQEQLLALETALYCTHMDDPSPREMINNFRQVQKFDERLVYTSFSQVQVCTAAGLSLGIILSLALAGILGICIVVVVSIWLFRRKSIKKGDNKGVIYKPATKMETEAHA
T3 sequence (P07451 whole entry): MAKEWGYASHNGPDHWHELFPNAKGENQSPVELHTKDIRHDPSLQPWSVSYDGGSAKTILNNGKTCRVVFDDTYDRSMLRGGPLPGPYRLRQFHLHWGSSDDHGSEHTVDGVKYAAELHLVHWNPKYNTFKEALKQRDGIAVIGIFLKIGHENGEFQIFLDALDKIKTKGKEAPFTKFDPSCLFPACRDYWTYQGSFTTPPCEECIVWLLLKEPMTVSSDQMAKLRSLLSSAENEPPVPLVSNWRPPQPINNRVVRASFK
T6 sequence (Q9Y2D0 34-317): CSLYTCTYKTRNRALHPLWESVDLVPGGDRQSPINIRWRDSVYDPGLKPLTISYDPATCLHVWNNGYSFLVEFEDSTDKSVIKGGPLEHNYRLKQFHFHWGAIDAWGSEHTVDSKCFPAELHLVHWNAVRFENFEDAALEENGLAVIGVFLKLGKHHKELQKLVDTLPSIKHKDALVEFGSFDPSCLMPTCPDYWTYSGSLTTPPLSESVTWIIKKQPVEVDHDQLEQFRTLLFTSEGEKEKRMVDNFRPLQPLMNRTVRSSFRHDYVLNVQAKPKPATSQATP
T1 sequence (P00915 whole entry): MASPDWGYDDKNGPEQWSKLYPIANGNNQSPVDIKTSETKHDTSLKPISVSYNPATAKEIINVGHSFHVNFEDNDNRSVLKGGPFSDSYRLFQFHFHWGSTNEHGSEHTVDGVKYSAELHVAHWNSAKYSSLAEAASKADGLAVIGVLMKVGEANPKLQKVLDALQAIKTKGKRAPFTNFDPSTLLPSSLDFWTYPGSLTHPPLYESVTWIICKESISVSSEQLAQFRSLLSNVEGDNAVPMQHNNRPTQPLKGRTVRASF
T5 sequence (P35218 39-305): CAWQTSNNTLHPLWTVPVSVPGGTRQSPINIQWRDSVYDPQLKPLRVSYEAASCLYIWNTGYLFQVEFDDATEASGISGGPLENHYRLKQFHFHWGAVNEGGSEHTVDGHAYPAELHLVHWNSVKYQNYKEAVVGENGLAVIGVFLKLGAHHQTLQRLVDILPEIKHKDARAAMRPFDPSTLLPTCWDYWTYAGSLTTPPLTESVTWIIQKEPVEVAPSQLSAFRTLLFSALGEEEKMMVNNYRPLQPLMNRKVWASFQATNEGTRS
T7 sequence (P23280 21-290 limits assumed): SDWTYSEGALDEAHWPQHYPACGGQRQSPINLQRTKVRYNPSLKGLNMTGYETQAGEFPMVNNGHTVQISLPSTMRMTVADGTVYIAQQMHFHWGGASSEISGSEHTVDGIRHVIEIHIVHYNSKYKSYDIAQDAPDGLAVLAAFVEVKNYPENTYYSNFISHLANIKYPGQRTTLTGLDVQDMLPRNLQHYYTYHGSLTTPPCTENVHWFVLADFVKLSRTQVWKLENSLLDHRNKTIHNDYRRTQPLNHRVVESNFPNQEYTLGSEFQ
T11 sequence (Q9ULX7 16-337): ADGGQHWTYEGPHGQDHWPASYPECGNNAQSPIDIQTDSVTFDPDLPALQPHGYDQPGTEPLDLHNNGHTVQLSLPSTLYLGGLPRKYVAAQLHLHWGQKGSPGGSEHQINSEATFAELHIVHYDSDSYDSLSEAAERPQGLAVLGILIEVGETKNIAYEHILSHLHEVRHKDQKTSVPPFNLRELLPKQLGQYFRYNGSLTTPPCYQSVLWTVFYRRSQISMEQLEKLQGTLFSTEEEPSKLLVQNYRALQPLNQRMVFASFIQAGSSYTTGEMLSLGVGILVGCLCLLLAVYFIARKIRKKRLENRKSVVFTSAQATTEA
Sequence of CAXIII (Q8N1Q1 whole entry): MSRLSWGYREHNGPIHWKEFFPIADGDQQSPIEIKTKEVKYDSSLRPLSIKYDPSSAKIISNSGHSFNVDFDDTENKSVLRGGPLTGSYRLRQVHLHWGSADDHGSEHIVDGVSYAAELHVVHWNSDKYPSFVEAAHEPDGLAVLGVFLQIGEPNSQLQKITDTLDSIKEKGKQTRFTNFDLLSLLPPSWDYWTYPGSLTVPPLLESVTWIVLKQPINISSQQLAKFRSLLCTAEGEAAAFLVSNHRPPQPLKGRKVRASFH
T4 sequence (P22748 19-312): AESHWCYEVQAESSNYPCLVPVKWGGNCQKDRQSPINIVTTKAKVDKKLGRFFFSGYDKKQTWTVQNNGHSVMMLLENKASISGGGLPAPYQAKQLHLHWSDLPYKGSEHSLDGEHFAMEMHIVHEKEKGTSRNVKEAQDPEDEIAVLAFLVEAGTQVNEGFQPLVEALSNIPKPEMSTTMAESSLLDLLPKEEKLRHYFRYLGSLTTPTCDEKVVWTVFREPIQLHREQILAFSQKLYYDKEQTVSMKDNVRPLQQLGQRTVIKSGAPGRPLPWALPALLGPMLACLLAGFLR

| Structure (SMILES) | Kd (CAI) [µM] | Kd (CAII) [µM] | Kd (CAIII) [µM] | Kd (CAIV) [µM] | Kd (CAVA) [µM] | Kd (CAVB) [µM] | Kd (CAVI) [µM] | Kd (CAVII; [1]) [µM] | Kd (CAIX) [µM] | Kd (CAXII) [µM] | Kd (CAXIV) [µM] | melting point [°C] | Kd (CAXIII) [µM] | Kd (CAVII; Observed Dissociation Constant (Kd_obs), CAVII) [µM] |
| --- | --- | --- | --- | --- | --- | --- | --- | --- | --- | --- | --- | --- | --- | --- |
| NS(=O)(=O)c1ccc(NCC(CC(=O)NN=Cc2ccc(C(=O)O)cc2)C(=O)NN=Cc2ccc(C(=O)O)cc2)c(Cl)c1 (stereo not shown) [Compound 18b, 4,4′-(((2-(((2-Chloro-4-sulfamoylphenyl)amino)methyl)succinyl)bis(hydrazin-2-yl-1-ylidene))bis(methaneylylidene))dibenzoic acid] | 5 | 1.3 | ≥ 200 | 13 | 6.7 | 6.7 | 20 | 0.33 | 0.25 | 13 | 1 | 294 to 295 | 1.8 |  |
| NS(=O)(=O)c1ccc(NCC(CC(=O)NN=Cc2ccc(C(=O)O)cc2)C(=O)NN=Cc2ccc(C(=O)O)cc2)cc1 (stereo not shown) [Compound 18a, 4,4′-(((2-(((4-Sulfamoylphenyl)amino)methyl)succinyl)bis(hydrazin-2-yl-1-ylidene))bis(methaneylylidene))dibenzoic acid] | 20 | 5 | ≥ 200 | 33 | 20 | 14 | 33 | 6.7 | 1.4 | 20 | 5 | 308 to 309 | 25 |  |
| CNC(=S)NNC(=O)CC(CNc1ccc(S(N)(=O)=O)cc1Cl)C(=O)NNC(=S)NC (stereo not shown) [Compound 22b] | 3.3 | 0.4 | ≥ 200 | 2 | 6.7 | ≥ 200 | 3.3 | 0.67 | 0.1 | 2.2 | 0.13 | 212 to 213 | 1.7 |  |
| NS(=O)(=O)c1ccc(NCC(CC(=O)NN=Cc2ccccc2)C(=O)NN=Cc2ccccc2)c(Cl)c1 (stereo not shown) [Compound 6b, 4-((2-(2-(Benzylidene)hydrazine-1-carbonyl)-4-(2-(benzylidene)hydrazineyl)-4-oxobutyl)amino)-3-chlorobenzenesulfonamide] | 1.4 | 0.24 | ≥ 200 | 4.2 | 20 | 0.13 | 0.67 | 0.29 | 0.1 | 7.9 | 0.14 | 212 to 213 | 0.18 |  |
| NS(=O)(=O)c1ccc(NCC(CC(=O)NNC(=S)Nc2ccccc2)C(=O)NNC(=S)Nc2ccccc2)c(Cl)c1 (stereo not shown) [Compound 23b, 2,2′-(2-(((2-Chloro-4-sulfamoylphenyl)amino)methyl)succinyl)bis(N-phenylhydrazine-1-carbothioamide)] | 0.067 | 0.05 | 15 | 1 | 20 | 1.1 | 1 | 0.11 | 0.033 | 0.05 | 0.05 | 158 to 159 | 0.4 |  |
| NS(=O)(=O)c1ccc(NCC(Cc2n[nH]c(=S)n2-c2ccccc2)c2n[nH]c(=S)n2-c2ccccc2)c(Cl)c1 (stereo not shown) [Compound 25b, 4-((2,3-bis(4-Phenyl-5-thioxo-4,5-dihydro-1H-1,2,4-triazol-3-yl)propyl)amino)-3-chlorobenzenesulfonamide] | 0.17 | 0.025 | 5 | 1.4 | 38 | 1.4 | 0.2 | 0.17 | 0.025 | 0.63 | 0.025 | 175 to 176 | 0.4 |  |
| CNC(=S)NNC(=O)CC(CNc1ccc(S(N)(=O)=O)cc1)C(=O)NNC(=S)NC (stereo not shown) [Compound 22a, 2,2′-(2-(((4-Sulfamoylphenyl)amino)methyl)succinyl)bis(N-methylhydrazine-1-carbothioamide)] | 50 | 2.5 | ≥ 200 | 6.7 | 33 | 25 | 13 | 10 | 0.33 | 11 | 3.3 | 192 to 193 | 33 |  |
| CCOC(=O)c1sc(N(CCC(=O)NN=Cc2ccccc2)c2ccc(S(N)(=O)=O)cc2)nc1C [Compound 34, Ethyl 2-((3-(2-Benzylidenehydrazineyl)-3-oxopropyl)(4-sulfamoylphenyl)amino)-4-methylthiazole-5-carboxylate] | 0.67 | 0.15 | ≥ 200 | 1 | ≥ 200 | 0.12 | 10 | 0.25 | 0.17 | 14 | 1 | 195 to 196 | 0.22 |  |
| NS(=O)(=O)c1ccc(NCC(CC(=O)NN=Cc2ccc(O)cc2)C(=O)NN=Cc2ccc(O)cc2)c(Cl)c1 (stereo not shown) [Compound 9b, 3-Chloro-4-((2-(2-(4-hydroxybenzylidene)hydrazine-1-carbonyl)-4-(2-(4-hydroxybenzylidene)hydrazineyl)-4-oxobutyl)amino)benzenesulfonamide] | 0.67 | 0.2 | ≥ 200 | 1 | 2.9 | 0.83 | 0.67 |  | 0.1 | 14 | 0.13 | 226 to 227 | 0.25 | 0.25 |
| Cc1csc(N(CCC(=O)NN=Cc2ccccc2)c2ccc(S(N)(=O)=O)cc2)n1 [Compound 30, 4-((3-(2-Benzylidenehydrazineyl)-3-oxopropyl)(4-methylthiazol-2-yl)amino)benzenesulfonamide] | 3.3 | 4 | ≥ 200 | 27 | ≥ 200 | 11 | 67 | 100 | 0.29 | 110 | 6.7 | 170 to 171 | 8.3 |  |
| NS(=O)(=O)c1ccc(NCC(CC(=O)NN=Cc2cccc(Cl)c2)C(=O)NN=Cc2cccc(Cl)c2)cc1 (stereo not shown) [Compound 11a, 4-((2-(2-(3-Chlorobenzylidene)hydrazine-1-carbonyl)-4-(2-(3-chlorobenzylidene)hydrazineyl)-4-oxobutyl)amino)benzenesulfonamide] | 20 | 3.3 |  |  |  |  |  |  | 1 | 100 |  | 190 to 191 | 5 |  |
